Experimental data from US12433885B2, “Procaspase combination therapy for glioblastoma” (THE BOARD OF TRUSTEES OF THE UNIVERSITY OF ILLINOIS, priority 2012, dated 2025).

Legend:
9 L (rat glioma) cells = assay: 9 L intracranial syngeneic rat glioma model, overall survival; type: in vivo; conditions: for Median survival: F344 rats, intracranial 9 L, PAC-1 50 mg/kg oral gavage days 0-4, TMZ 50 mg/kg oral gavage days 5-9, 8 rats per group
Experimental: 9 L (rat glioma) cells were intracranially implanted in rats. PAC-1 (50 mg/kg in water) was administered via oral gavage on days 0-4, and TMZ (50 mg/kg in water) was given via oral gavage on days 5-9; 8 rates per group.
The in vivo rat experiments employed 9 L cells, a very aggressive tumor model, implanted inter-cranially in rats in 3 treatment groups (PAC-1 alone, TMZ alone, and the combination of PAC-1 and TMZ) and one control group.
PAC-1 was suspended in water, and given to the rats via oral gavage at 50 mg/kg (a relatively low dose) for 5 days followed by five days of TMZ dosing.
PAC-1 (50 mg/kg in water) was administered via oral gavage on days 0-4, and TMZ (50 mg/kg in H2O) was given via oral gavage on days 5-9.
9 L gliosarcoma was maintained as a solid subcutaneous mass in the flanks of F344 rats. For intracranial implantation, the 9 L gliosarcoma tumor was surgically excised from the carrier animal and sliced into 1 mm^3 pieces at the time of implantation.
The animals were divided into the following four experimental groups with eight animals per group: (1) Control, (2) PAC-1 alone, (3) TMZ alone, and (4) PAC-1+TMZ. The control animals only received water. Two groups of animals from PAC-1 alone and PAC-1+TMZ received an oral gavage of PAC-1 suspended in water starting day 0 six hours post implantation. PAC-1 was administered only for 5 days from day 0 to day 4. The animals from TMZ alone and PAC-1+TMZ groups received 5 doses of TMZ in water administered orally from day 5 to day 9.

9 L cell line = assay: IC50 of PAC-1 with the 9 L cell line; type: cell-based; conditions: Rattus norvegicus; 72 hour experiment; initial assessment
Experimental: The initial assessment for the IC50 for PAC-1 with the 9 L cell line is about 7 μM (72 hour experiment).

K7M2 cells = assay: Mouse model of metastatic osteosarcoma, survival; type: in vivo; conditions: oral PAC-1 100 mg/kg in HPβCD and TMZ 50 mg/kg, sequential, daily for five consecutive days, from seven days after K7M2 injection; n=8 mice per group
Experimental: FIG. 4. PAC-1 synergizes with TMZ to extend survival in a mouse model of metastatic osteosarcoma. Seven days after injection of K7M2 cells, mice were treated orally with PAC-1 (100 mg/kg in HPβCD), TMZ (50 mg/kg […]), or a sequential treatment with each, daily for five consecutive days; n=8 mice per group.

[1] = Neurotoxicity of oral PAC-1 in mice; type: in vivo; conditions: given orally at up to 200 mg/kg

Row | SMILES | Median survival (9 L (rat glioma) cells) [days] | Neurotoxicity (9 L (rat glioma) cells; rats, PAC-1 50 mg/kg oral gavage for 5 days followed by five days of TMZ dosing) | IC50 (9 L cell line) [µM] | Synergy with TMZ to extend survival (K7M2 cells) | Neurotoxicity [1]
1 | C=CCc1cccc(/C=N/NC(=O)CN2CCN(Cc3ccccc3)CC2)c1O [PAC-1, 2-(4-benzylpiperazin-1-yl)-N-[(2-hydroxy-3-prop-2-enyl-phenyl)methylideneamino]acetamide] | 13.5 | no neurotoxicity was observed | ~7 | synergizes | No neurotoxicity was observed
2 | Cn1nnc2c(C(N)=O)ncn2c1=O [TMZ, Temozolomide, reference compound] | 20 |  |  |  | 
